The values below come from patent publication US8044213B2, “Thiazolyl-benzimidazoles” (Hoffmann-La Roche Inc., priority 2008, dated 2011).

For orientation: IC50 means the concentration that gives 50% inhibition. A low value points to greater potency in that assay.

In the first experiment the target is T1, GST-Plk1 (Homo sapiens, UniProt P53350).
T1 construct: Full-length, active GST-Plk1 was purified from Sf9 insect cells; made in house; host or cells: Sf9 insect cells
T1 sequence (P53350 whole entry): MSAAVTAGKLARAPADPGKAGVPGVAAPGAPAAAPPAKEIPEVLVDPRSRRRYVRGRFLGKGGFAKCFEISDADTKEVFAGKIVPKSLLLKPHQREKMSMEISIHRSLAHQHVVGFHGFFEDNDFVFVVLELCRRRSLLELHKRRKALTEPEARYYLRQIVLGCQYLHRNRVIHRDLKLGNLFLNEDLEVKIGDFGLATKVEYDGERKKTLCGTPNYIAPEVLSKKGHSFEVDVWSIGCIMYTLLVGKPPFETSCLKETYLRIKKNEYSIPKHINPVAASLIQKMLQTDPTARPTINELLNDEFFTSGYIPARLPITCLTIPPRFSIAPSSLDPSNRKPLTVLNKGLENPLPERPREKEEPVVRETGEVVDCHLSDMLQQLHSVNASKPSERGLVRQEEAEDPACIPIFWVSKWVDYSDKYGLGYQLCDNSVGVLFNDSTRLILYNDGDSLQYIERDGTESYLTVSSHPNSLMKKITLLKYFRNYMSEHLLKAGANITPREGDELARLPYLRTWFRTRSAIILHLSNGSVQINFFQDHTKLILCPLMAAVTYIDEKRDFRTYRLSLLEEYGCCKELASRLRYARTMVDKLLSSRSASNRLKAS
The experiment in a line: Biochemical Characterization Assay A (HTRF, phosphorylation of GST-p53). Particulars: full-length GST-Plk1, GST-p53 substrate, HTRF signal. How it is done:
Full-length, active GST-Plk1 was purified from Sf9 insect cells, and full-length GST-p53 was purified in E. coli. Anti-phospho p53 antibody was purchased from Cell Signaling Technology. Europium-conjugated anti-rabbit antibody was purchased from PerkinElmer Life and Analytical Sciences. APC-conjugated anti-GST antibody was purchased from Prozyme.
To two microliters of compound (0.6 nM-4 mM) in DMSO or plain DMSO for control wells, 38 microliters of 20 mM HEPES pH 7, 50 mM NaCl, 10 mM MgCl2, 0.5 mM TCEP, 0.1 mM sodium orthovanadate, 0.1 mg/ml BSA, and 0.05% Triton X-100 (Kinase Assay Buffer) were added. Eight microliters of the compound solution were added to a 384-well black microtiter plate, followed by six microliters of GST-p53 (17 ug/ml) and ATP (333 uM) in Kinase Assay Buffer. Six microliters of GST-Plk1 (3 ug/ml) in Kinase Assay Buffer were then added and the solution incubated at 37° C. for 35 minutes. Six microliters of solution containing 43 mM EDTA to stop the reaction and a 1:600 dilution of anti-phospho-p53 antibody in 20 mM HEPES pH 7, 50 mM NaCl, and 0.5 mg/ml BSA (Antibody Binding Buffer) were added and the solution incubated at 37° C. for 30 minutes. Six microliters of solution containing 9 nM europium-conjugated anti-rabbit antibody and 120 nM APC-conjugated anti-GST antibody in Antibody Binding Buffer were then added and the mixture incubated at room temperature for 1.5 hours. The HTRF signal was read on the Envision reader (PerkinElmer Life and Analytical Sciences).
(§1) The IC50 values for each compound were generated using an Excel template. The % conversion readings of Total and Blank were used as 0% and 100% inhibition. The percent inhibition values of reactions in the presence of compounds were calculated, and plotted against compound concentrations. All data were fitted into a Dose Response One Site model (4 parameter logistic model) as the following: (A+4B−A)/(1+((x/C)^13)))), with A and B as the bottom and top of the curve (highest and lowest inhibition), respectively, and C as IC50 and D as Hill Coefficient of the compound.
In general terms: Time-resolved FRET reads energy transfer from a long-lived donor to a nearby acceptor.
`CN1CCN(Cc2ccc3ncn(-c4nc(-c5ccccc5C(F)(F)F)c(C(N)=O)s4)c3c2)CC1` [Example 17, 2-[6-(4-Methyl-piperazin-1-ylmethyl)-benzoimidazol-1-yl]-4-(2-trifluoromethyl-phenyl)-thiazole-5-carboxylic acid amide] returned an IC50 of 1140 nM.

Turning to `CN1CCN(Cc2ccc3c(c2)ncn3-c2nc(-c3ccc(Cl)cc3)c(C(N)=O)s2)CC1` [Example 18, 4-(4-Chloro-phenyl)-2-[5-(4-methyl-piperazin-1-ylmethyl)-benzoimidazol-1-yl]thiazole-5-carboxylic acid amide], the IC50 was greater than 80000 nM. Still for that read-out and setting: next, `CN1CCN(Cc2ccc3ncn(-c4nc(-c5ccc(Cl)cc5)c(C(N)=O)s4)c3c2)CC1` [Example 19, 4-(4-Chloro-phenyl)-2-[6-(4-methyl-piperazin-1-ylmethyl)-benzoimidazol-1-yl]-thiazole-5-carboxylic acid amide]: 499 nM. On the same count and under the same terms, then `CN1CCN(Cc2ccc3ncn(-c4nc(-c5ccccc5Cl)c(C(N)=O)s4)c3c2)CC1` [Example 20, 4-(2-Chloro-phenyl)-2-[6-(4-methyl-piperazin-1-ylmethyl)-benzoimidazol-1-yl]-thiazole-5-carboxylic acid amide], with 346 nM; and `NC(=O)c1sc(-n2cnc3ccc(OC4CCNCC4)cc32)nc1-c1cccc(Cl)c1` [Example 21, 4-(3-Chloro-phenyl)-2-[6-(piperidin-4-yloxy)-benzoimidazol-1-yl]-thiazole-5-carboxylic acid amide], with 80 nM. The same measure, in the same setting: then `NC(=O)c1sc(-n2cnc3ccc(OC4CCCCC4)cc32)nc1-c1cccc(Cl)c1` [Example 25, 4-(3-Chloro-phenyl)-2-(6-cyclohexyloxy-benzoimidazol-1-yl)-thiazole-5-carboxylic acid amide], with 660 nM; and `NC(=O)c1sc(-n2cnc3ccc(OCCN4CCOCC4)cc32)nc1-c1cccc(Cl)c1` [Example 26, 4-(3-Chloro-phenyl)-2-[6-(2-morpholin-4-yl-ethoxy)-benzoimidazol-1-yl]-thiazole-5-carboxylic acid amide], with 166 nM. In the case of `NC(=O)c1sc(-n2cnc3ccc(OCCCN4CCOCC4)cc32)nc1-c1cccc(Cl)c1` [Example 30, 4-(3-Chloro-phenyl)-2-[6-(3-morpholin-4-yl-propoxy)-benzoimidazol-1-yl]-thiazole-5-carboxylic acid amide], the IC50 is 21 nM.

Compound `CN(C)CCCOc1ccc2ncn(-c3nc(-c4cccc(Cl)c4)c(C(N)=O)s3)c2c1` [Example 31, 4-(3-Chloro-phenyl)-2-[6-(3-dimethylamino-propoxy)-benzoimidazol-1-yl]-thiazole-5-carboxylic acid amide] returned a half-maximal inhibitory concentration (IC50) of 161 nM. In the case of `CN1CCN(CCCOc2ccc3ncn(-c4nc(-c5cccc(Cl)c5)c(C(N)=O)s4)c3c2)CC1` [Example 33, 4-(3-Chloro-phenyl)-2-{6-[3-(4-methyl-piperazin-1-yl)-propoxy]-benzoimidazol-1-yl}-thiazole-5-carboxylic acid amide], 32 nM corresponded to half-maximal inhibition (IC50).

Compound `COc1cc2ncn(-c3nc(-c4cccc(Cl)c4)c(C(N)=O)s3)c2cc1OCCCN1CCN(C)CC1` [Example 42, 4-(3-Chloro-phenyl)-2-{5-methoxy-6-[3-(4-methyl-piperazin-1-yl)-propoxy]-benzoimidazol-1-yl}-thiazole-5-carboxylic acid amide] gave an IC50 of 19 nM. On to `CN1CCN(Cc2ccc3ncn(-c4nc(-c5ccc(C(F)(F)F)cc5)c(C(N)=O)s4)c3c2)CC1` [Example 47, 2-[6-(4-Methyl-piperazin-1-ylmethyl)-benzoimidazol-1-yl]-4-(4-trifluoromethyl-phenyl)-thiazole-5-carboxylic acid amide], for which the half-maximal inhibitory concentration (IC50) is 661 nM. On the same count and under the same terms, next, `CN1CCN(Cc2ccc3ncn(-c4nc(-c5cccc(C(F)(F)F)c5)c(C(N)=O)s4)c3c2)CC1` [Example 48, 2-[6-(4-Methyl-piperazin-1-ylmethyl)-benzoimidazol-1-yl]-4-(3-trifluoromethyl-phenyl)-thiazole-5-carboxylic acid amide]: 59 nM.

In the next experiment the target is T2, PLK1 (Homo sapiens, UniProt P53350).
T2 construct: Full-length, active GST-Plk1 was purified from Sf9 insect cells; GST (N); made in house; host or cells: Sf9 insect cells
T2 sequence (P53350 whole entry): as above
The experiment in a line: Biochemical Characterization Assay B (peptide substrate, LABCHIP EZ Reader II). To be noted: PLK1, peptide RRRAGALMDASFEEQ-CONH2, % conversion on LABCHIP EZ Reader II. As to the method: Compounds were serially diluted to 6400, 2133, 711, 237, 79, 26, 8.78, 2.93, 0.98 and 0.33 μM in 100% DMSO. Diluted compound was further diluted 20 fold with Kinase Assay Buffer (KAB). Peptide RRRAGALMDASFEEQ-CONH2 (MW 2090) was diluted to 1.2 μM with KAB and ATP was added to 400 μM. PLK1 stock, prepared as described above, was diluted to 3 μg protein/mL with KAB right before it was added to MATRIX 384-Well Polypropylene Black Plates to start the reaction. 20 μL of KAB diluted compounds (or 5% DMSO in KAB for Total and Blank), 20 μL of KAB diluted peptide with ATP and 40 μL of KAB diluted PLK1 solution (KAB without PLK 1 for Blanks) were transferred to each well of the polypropylene plates. The reaction mixtures were incubated at room temperature for 40 minutes. Reactions were stopped by addition of 10 uL Reaction Stopping Buffer (RSB) to each well. Plates were then read on LABCHIP EZ Reader II from Caliper Life Science.
as §1
Turning to `COc1cc2ncn(-c3nc(-c4cccc(Cl)c4)c(C(N)=O)s3)c2cc1OCCCN1CCN(C)CC1` [Example 42, 4-(3-Chloro-phenyl)-2-{5-methoxy-6-[3-(4-methyl-piperazin-1-yl)-propoxy]-benzoimidazol-1-yl}-thiazole-5-carboxylic acid amide], the half-inhibitory concentration (IC50) was found to be 60 nM.
